Test results published in patent US20230322715A1, “BROAD SPECTRUM ANTI-CANCER COMPOUNDS” (The Regents of the University of California, priority 2019, published 2023).
Values joined by “and” are separate entries in the source; they are usually repeats but may differ in a detail not shown here. Equal values may be shown once. Read-outs that look alike come from different tables or passages of the source.

Assays:
[1] = target: FTO (Homo sapiens (Human), UniProt Q9C0B1); assay: Fluorescence enzymatic inhibition assay (m6A7-Broccoli RNA / DFHBI-1T) against FTO; assay type: biochemical
Chain of FTO (Q9C0B1 whole entry): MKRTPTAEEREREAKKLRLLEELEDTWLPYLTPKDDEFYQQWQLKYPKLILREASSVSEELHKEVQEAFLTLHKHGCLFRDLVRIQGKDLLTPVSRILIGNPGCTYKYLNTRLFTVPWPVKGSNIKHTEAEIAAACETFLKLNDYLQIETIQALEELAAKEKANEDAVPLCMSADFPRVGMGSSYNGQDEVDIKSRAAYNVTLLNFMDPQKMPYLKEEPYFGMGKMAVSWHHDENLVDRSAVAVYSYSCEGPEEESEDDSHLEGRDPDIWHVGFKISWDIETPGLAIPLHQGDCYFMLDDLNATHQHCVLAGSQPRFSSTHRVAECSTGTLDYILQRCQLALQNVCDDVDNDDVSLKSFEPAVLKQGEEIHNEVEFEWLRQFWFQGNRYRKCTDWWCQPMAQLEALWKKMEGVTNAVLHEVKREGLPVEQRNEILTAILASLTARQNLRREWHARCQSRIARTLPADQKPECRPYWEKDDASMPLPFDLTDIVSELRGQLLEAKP
Experimental: In order to determine their efficacy as FTO inhibitors, the compounds were screened by a fluorescence enzymatic inhibition assay developed previously by the Jaffrey lab.^44 Briefly, a nonfluorescent methylated RNA substrate termed “m6A7-Broccoli” is incubated with FTO in the presence of 2-oxoglutarate (300 μM), (NH4)2Fe(SO4)2·6H2O (300 μM), and L-ascorbate (2 mM) for 2 hours at room temperature in reaction buffer (50 mM NaHEPES, pH 6).
(§1) Inhibitors were added in concentrations ranging from 0.008-40 μM; all inhibitors were dissolved in DMSO and added to a final concentration of 0.2% DMSO. […] After incubation at room temperature for 2 hours, the plates were left at 4° C. overnight (16 hours) to allow DFHBI-1T to bind to A7-Broccoli RNA. […] Sigmoidal dose-response curves were fitted in GraphPad Prism 6. All assays were performed in triplicate, with additional repetitions added as necessary.

[2] = target: ALKBH5 (Homo sapiens (Human), UniProt Q6P6C2); assay: Fluorescence enzymatic inhibition assay (m6A7-Broccoli RNA / DFHBI-1T) against ALKBH5; assay type: biochemical
Chain of ALKBH5 (Q6P6C2 whole entry): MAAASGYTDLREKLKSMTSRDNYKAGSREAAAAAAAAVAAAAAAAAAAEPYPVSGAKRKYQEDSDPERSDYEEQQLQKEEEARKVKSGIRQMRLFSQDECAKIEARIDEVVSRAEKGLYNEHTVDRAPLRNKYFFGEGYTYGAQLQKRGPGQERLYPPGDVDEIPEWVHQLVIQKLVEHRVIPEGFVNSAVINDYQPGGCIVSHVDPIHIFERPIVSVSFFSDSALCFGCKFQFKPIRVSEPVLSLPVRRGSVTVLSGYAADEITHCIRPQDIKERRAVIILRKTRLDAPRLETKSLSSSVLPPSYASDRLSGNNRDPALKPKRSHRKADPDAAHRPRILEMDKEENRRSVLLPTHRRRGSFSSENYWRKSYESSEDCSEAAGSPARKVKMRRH
Experimental: as §1

[3] = elogD / log D determination
[4] = Table 700 compounds, read-out: Enzymatic IC50 FTO
[5] = Table 700 compounds, read-out: Enzymatic IC50 ALKBH5
[6] = ALK series, permeability data and IC50 tables, read-out: Enzymatic IC50 ALKBH5
[7] = m6A7-Broccoli fluorescence assay, 0.250 μM ALKBH5, read-out: Enzymatic IC50 ALKBH5
[8] = Table 800 compounds, read-out: FTO IC50
[9] = Table 800 compounds, read-out: ALKBH5 IC50

IC50 [1, 4]	IC50 [2, 5]	elogD ([3]; Table 700 compounds)	IC50 [1, 8] [µM]	IC50 [2, 9] [µM]	elogD ([3]; Table 800 compounds)	SMILES	also measured
103 µM and > 40 µM	17.5 µM	0.58				CCOC(=O)C1CC1C1NCCS1 (centres unmarked) [ALK-01]	
> 40 µM	16.6 µM	1.40				CC(C)(C)OC(=O)N1CCC(F)(C2NCCS2)C1 (centres unmarked) [ALK-02]	
> 40 µM	> 40 µM	0.62				O=C(O)N1CCC(F)(C2NCCS2)C1 (centres unmarked) [ALK-03]	
> 40 µM	19.8 ± 1.8 µM	0.16				CC1(C)SCC(C)(C(=O)O)N1C(N)=O (centres unmarked) [ALK-05]	
> 40 µM	8.8 µM and 7.95 µM	0.89				O=C(O)[C@H]1NCCS1 [ALK-06]	
> 40 µM	1.7 ± 1.1 µM	0.54				O=C1N[C@H](C(=O)O)CS1 [ALK-10]	
> 40 µM	6.7 ± 1.8 µM	2.12				COC(=O)C1COC(c2ccc(O)cc2)N1 (centres unmarked) [ALK-13]	
> 40 µM	8.2 ± 2.3 µM	1.44				COC(=O)C1COC(c2ccccc2O)N1 (centres unmarked) [ALK-16]	IC50 [2, 6]: 8.2 ± 2.3 µM
						COC(=O)C1COC(c2ccc(OC)cc2O)N1 (centres unmarked) [ALK-17]	IC50 [2, 6]: 18.2 µM
14.2 ± 3.1 µM	5.4 ± 0.7 µM	0.73				COC(=O)C1COC(c2ccc(-c3ccccc3)o2)N1 (centres unmarked) [ALK-18]	IC50 [2, 6]: 5.4 ± 1.4 µM
						COC(=O)C1COC(c2cc(C(C)(C)C)ccc2O)N1 (centres unmarked) [ALK-19]	IC50 [2, 6]: 24 ± 4.2 µM
> 40 µM	2.8 ± 0.5 µM	3.01				COC(=O)C1COC(c2ccc(OC)c(Cl)c2)N1 (centres unmarked) [ALK-23]	
> 40 µM	0.9 ± 0.2 µM	1.17				COC(=O)C1COC(c2ccc(-c3ccccc3)s2)N1 (centres unmarked) [ALK-25]	
> 40 µM	1.4 ± 0.4 µM	0.67				CCN(CC)c1ccc(C2NC(C(=O)OC)CS2)c(O)c1 (centres unmarked) [ALK-30]	
						COc1ncc(-c2ccc3cc(O)ccc3c2)cn1 [FTO-2, 6-(2-methoxypyrimidin-5-yl)naphthalen-2-ol]	IC50 [2, 7]: 85.5 µM
						COc1ncc(-c2ccc3nc(N)sc3c2)cn1 [FTO-4, 6-(2-methoxypyrimidin-5-yl)benzo[d]thiazol-2-amine]	IC50 ([1]; m6A7-Broccoli fluorescence assay, 0.250 μM FTO, inhibitor up to 40 μM, triplicate, read-out: Enzymatic IC50 FTO): 3.39 ± 2.5 µM; IC50 [2, 7]: 39.4 ± 3.1 µM
			19.7	0.24	0.37	O=S(=O)(NCC1CCCOC1)c1ccc(OC(F)(F)F)cc1 (centres unmarked) [TR-ALKBH5-04]	
			> 40	1.9	1.12	CC(=O)c1ccc(S(=O)(=O)NCC2CCCOC2)cc1 (centres unmarked) [TR-ALKBH5-05]	
			6.4	0.5	0.89	O=S(=O)(NCC1CCCOC1)c1ccccc1 (centres unmarked) [TR-ALKBH5-08]	
			> 40	1.6	1.50	O=S(=O)(Nc1ccc(Cl)c(C(F)(F)F)c1)c1ccc(OC(F)(F)F)cc1 [TR-ALKBH5-25]	
			> 40	2	0.36	O=S(=O)(Nc1cccs1)c1ccc(OC(F)(F)F)cc1 [TR-ALKBH5-27]	
			> 40	0.11	0.88	O=S(=O)(Nc1cc(Cl)ccc1O)c1ccc(OC(F)(F)F)cc1 [TR-ALKBH5-29]	
			> 40	1	0.81	O=S(=O)(Nc1cc(F)ccc1O)c1ccc(OC(F)(F)F)cc1 [TR-ALKBH5-30]	
			> 40	13.7	2.33	O=S(=O)(Nc1nccnc1O)c1ccc(OC(F)(F)F)cc1 [TR-ALKBH5-31]	
			> 40	2.2	2.25	O=S(=O)(NCc1ccccn1)c1ccc(OC(F)(F)F)cc1 [TR-ALKBH5-32]	
					1.24	O=S(=O)(Nc1ccc(Cl)c(Cl)c1)c1ccc(OC(F)(F)F)cc1 [TR-ALKBH5-33]	
			> 40	23.3	0.60	Cc1ccc(NS(=O)(=O)c2ccc(OC(F)(F)F)cc2)cc1C [TR-ALKBH5-34]	
			23.2	0.4	1.13	O=S(=O)(Nc1ccccc1N1CCCCC1)c1ccc(OC(F)(F)F)cc1 [TR-ALKBH5-36]	

SMILES	IC50 [1, 4]	IC50 [2, 5]	elogD ([3]; Table 700 compounds)	IC50 [1, 8] [µM]	IC50 [2, 9] [µM]	elogD ([3]; Table 800 compounds)	also measured
CC1(C)S[C@@H]2[C@H](N)C(=O)N2[C@H]1C(=O)O [ALK-07]	> 40 µM	10 ± 2.8 µM	0.95				
C[C@]1(Cn2ccnn2)C(C(=O)O)N2C(=O)C[C@H]2S1(=O)=O (some centres unmarked) [ALK-08]	> 40 µM	9.9 ± 1.3 µM	0.36				
CC1(C)[C@H](C(=O)O)N2C(=O)C[C@H]2S1(=O)=O [ALK-09]	> 40 µM	3.8 µM and 5.7 µM	0.41				
